Test results reported in ChEMBL document CHEMBL5665443, “Enzyme Inhibitor Single Concentration assay results for EUbOPEN Chemogenomics Library” (2024).
Where a SMILES comes first, the peptide text is derived from it. [ ]: non-standard residue; d: D form. Arg(Me) = CNC(=N)NCCC[C@H](N)C(=O)O; d3Pal = N[C@H](Cc1cccnc1)C(=O)O; azaGly = NNC(=O)O

Experiments:
[1] = target: Uracil-DNA glycosylase (Homo sapiens) (UniProt P13051); details: Hit No;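 further: UNG excision on a quenched double-stranded DNA oligo probe, with APE1 added for strand incision and turnover, read as fluorescence at 594 nm as strands separate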
Description: Inhibition of UNG by quantifying inhibition of UNG-mediated cleavage and dissociation of quenched duplex DNA oligonucleotides, measured as fluorescence at 594 nm. To generate a functional strand incision and increase turn-over this assay is coupled to APE1.

[2] = target: N-glycosylase/DNA lyase (Homo sapiens) (UniProt O15527);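 further: OGG1 cleavage of a quenched duplex DNA oligonucleotide, coupled to APE1 for strand incision, read as fluorescence at 594 nm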
Description: Inhibition of OGG1 by quantifying inhibition of OGG1-mediated cleavage and dissociation of quenched duplex DNA oligonucleotides, measured as fluorescence at 594 nm. To generate a functional strand incision and increase turn-over this assay is coupled to APE1.

[3] = target: T1, Endonuclease 8-like 2 (Homo sapiens) (UniProt Q969S2); details: Hit No;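 further: fluorescence at 594 nm reports NEIL2 cutting and release of a quenched double-stranded DNA oligo substrate, reduced signal read as inhibition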
T1 sequence (whole entry): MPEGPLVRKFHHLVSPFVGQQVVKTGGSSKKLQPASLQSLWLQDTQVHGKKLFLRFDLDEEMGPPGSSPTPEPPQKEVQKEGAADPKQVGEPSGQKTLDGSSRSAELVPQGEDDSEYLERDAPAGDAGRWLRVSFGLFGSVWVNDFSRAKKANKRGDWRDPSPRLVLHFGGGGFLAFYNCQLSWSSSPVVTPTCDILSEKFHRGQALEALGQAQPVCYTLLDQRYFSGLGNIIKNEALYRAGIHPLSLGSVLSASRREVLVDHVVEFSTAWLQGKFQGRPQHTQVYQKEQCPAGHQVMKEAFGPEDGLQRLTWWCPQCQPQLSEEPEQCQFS
Description: Inhibition of NEIL2 by quantifying inhibition of NEIL2-mediated cleavage and dissociation of quenched duplex DNA oligonucleotides, measured as fluorescence at 594 nm.

[4] = target: Methyl-CpG-binding domain protein 4 (Homo sapiens) (UniProt O95243); details: Hit No;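 further: MBD4 activity read as fluorescence at 594 nm from cleavage and release of a quenched duplex DNA oligonucleotide, with APE1 coupled to incise the strand and raise turnover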
Description: Inhibition of MBD4 by quantifying inhibition of MBD4-mediated cleavage and dissociation of quenched duplex DNA oligonucleotides, measured as fluorescence at 594 nm. To generate a functional strand incision and increase turn-over this assay is coupled to APE1.

[5] = target: Endonuclease 8-like 1 (Homo sapiens) (UniProt Q96FI4); details: Hit No;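 further: fluorescence at 594 nm from quenched duplex DNA oligonucleotides released by NEIL1 cleavage and strand separation, reported as reduction of this enzyme activity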
Description: Inhibition of NEIL1 by quantifying inhibition of NEIL1-mediated cleavage and dissociation of quenched duplex DNA oligonucleotides, measured as fluorescence at 594 nm.

[6] = target: T2, Single-strand selective monofunctional uracil DNA glycosylase (Homo sapiens) (UniProt Q53HV7); details: Hit No;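 further: enzymatic SMUG1 assay coupled with APE1, reading fluorescence at 594 nm released when a quenched double-stranded DNA oligonucleotide substrate is cleaved and separated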
T2 sequence (whole entry): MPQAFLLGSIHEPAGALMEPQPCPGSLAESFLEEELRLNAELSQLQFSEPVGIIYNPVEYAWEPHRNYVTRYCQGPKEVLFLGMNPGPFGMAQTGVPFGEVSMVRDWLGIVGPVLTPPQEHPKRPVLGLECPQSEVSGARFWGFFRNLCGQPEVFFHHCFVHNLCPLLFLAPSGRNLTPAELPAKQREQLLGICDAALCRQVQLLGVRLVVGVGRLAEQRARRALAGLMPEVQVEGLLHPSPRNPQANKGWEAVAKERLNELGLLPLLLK
Description: Inhibition of SMUG1 by quantifying inhibition of SMUG1-mediated cleavage and dissociation of quenched duplex DNA oligonucleotides, measured as fluorescence at 594 nm. To generate a functional strand incision and increase turn-over this assay is coupled to APE1.

[7] = target: T3, Adenine DNA glycosylase (Homo sapiens) (UniProt Q9UIF7); details: Hit No;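 further: human MUTYH activity read as 594 nm fluorescence from cleavage and release of a quenched DNA duplex, coupled with APE1 for strand incision, lower signal meaning inhibition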
T3 sequence (whole entry): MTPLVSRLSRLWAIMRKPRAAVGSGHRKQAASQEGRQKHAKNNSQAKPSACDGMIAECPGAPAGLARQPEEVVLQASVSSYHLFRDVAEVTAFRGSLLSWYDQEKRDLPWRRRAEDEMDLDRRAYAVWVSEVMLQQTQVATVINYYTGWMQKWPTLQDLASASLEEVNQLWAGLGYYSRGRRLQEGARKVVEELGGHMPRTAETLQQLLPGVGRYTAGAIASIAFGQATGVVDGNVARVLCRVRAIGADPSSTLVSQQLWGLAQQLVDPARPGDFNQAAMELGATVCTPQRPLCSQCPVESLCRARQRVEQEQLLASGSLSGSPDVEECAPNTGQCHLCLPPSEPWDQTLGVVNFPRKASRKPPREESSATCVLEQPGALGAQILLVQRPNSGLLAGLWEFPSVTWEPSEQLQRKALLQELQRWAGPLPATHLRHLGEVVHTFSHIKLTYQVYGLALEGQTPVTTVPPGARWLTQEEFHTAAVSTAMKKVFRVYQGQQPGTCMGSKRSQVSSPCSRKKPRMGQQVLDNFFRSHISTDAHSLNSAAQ
Description: Inhibition of MUTYH by quantifying inhibition of MUTYH-mediated cleavage and dissociation of quenched duplex DNA oligonucleotides, measured as fluorescence at 594 nm. To generate a functional strand incision and increase turn-over this assay is coupled to APE1.

[8] = target: T4, Endonuclease III-like protein 1 (Homo sapiens) (UniProt P78549); details: Hit No;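 further: enzyme assay tracking NTHL1 cutting and release of a quenched double-stranded DNA oligo substrate, read as fluorescence at 594 nm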
T4 sequence (whole entry): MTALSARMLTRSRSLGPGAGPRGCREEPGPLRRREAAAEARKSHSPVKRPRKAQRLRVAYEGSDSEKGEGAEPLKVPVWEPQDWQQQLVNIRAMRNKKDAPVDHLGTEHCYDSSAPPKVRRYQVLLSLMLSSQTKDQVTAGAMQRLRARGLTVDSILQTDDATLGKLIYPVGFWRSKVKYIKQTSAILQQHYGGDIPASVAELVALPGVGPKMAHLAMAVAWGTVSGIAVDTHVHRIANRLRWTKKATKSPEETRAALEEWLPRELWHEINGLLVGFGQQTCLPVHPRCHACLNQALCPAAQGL
Description: Inhibition of NTHL1 by quantifying inhibition of NTHL1-mediated cleavage and dissociation of quenched duplex DNA oligonucleotides, measured as fluorescence at 594 nm.

[9] = target: G/T mismatch-specific thymine DNA glycosylase (Homo sapiens) (UniProt Q13569); details: Hit No;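 further: human TDG cleavage of quenched duplex DNA oligonucleotides coupled to APE1, strand release read as fluorescence at 594 nm, inhibition of TDG activity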
Description: Inhibition of TDG by quantifying inhibition of TDG-mediated cleavage and dissociation of quenched duplex DNA oligonucleotides, measured as fluorescence at 594 nm. To generate a functional strand incision and increase turn-over this assay is coupled to APE1.

[10] = Compound Concentration 10.0 uM, Hit No

Sequence of G/T mismatch-specific thymine DNA glycosylase (Homo sapiens) (Q13569 whole entry): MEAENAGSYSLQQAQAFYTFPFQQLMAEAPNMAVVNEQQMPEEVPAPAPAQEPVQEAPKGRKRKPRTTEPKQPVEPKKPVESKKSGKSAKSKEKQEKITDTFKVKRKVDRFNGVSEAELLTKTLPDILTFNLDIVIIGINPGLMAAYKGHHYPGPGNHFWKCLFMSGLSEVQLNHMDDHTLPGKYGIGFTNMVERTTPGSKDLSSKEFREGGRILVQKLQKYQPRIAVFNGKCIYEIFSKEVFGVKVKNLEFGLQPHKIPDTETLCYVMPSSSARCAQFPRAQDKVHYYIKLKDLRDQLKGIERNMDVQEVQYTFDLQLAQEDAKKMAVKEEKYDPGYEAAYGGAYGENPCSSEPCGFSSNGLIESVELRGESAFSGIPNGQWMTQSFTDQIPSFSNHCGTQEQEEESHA
Sequence of N-glycosylase/DNA lyase (Homo sapiens) (O15527 whole entry): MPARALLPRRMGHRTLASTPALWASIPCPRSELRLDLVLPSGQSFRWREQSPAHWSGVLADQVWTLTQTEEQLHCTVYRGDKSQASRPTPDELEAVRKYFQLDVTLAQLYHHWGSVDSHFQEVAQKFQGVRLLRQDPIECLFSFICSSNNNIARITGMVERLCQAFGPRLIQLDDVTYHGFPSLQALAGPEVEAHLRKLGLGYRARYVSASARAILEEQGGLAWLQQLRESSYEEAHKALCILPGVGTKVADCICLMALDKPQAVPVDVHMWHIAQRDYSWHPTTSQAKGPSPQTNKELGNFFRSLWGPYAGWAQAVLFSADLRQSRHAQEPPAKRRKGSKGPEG
Sequence of Methyl-CpG-binding domain protein 4 (Homo sapiens) (O95243 whole entry, the tested form may be a part): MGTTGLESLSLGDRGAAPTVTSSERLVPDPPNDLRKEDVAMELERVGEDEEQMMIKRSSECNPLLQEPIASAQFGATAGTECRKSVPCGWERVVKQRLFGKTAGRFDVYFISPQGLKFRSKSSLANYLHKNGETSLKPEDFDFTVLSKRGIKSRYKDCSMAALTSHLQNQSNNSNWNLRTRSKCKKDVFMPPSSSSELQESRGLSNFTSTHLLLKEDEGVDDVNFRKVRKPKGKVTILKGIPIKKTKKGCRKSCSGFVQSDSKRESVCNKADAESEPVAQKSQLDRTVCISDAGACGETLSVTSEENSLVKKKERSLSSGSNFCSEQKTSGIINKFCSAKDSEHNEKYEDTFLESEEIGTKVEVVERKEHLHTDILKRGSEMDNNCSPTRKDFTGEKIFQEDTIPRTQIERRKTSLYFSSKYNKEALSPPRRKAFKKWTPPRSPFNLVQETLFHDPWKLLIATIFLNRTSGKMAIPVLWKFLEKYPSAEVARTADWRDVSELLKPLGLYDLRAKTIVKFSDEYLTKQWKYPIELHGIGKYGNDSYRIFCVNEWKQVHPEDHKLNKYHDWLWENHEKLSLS
Sequence of Endonuclease 8-like 1 (Homo sapiens) (Q96FI4 whole entry): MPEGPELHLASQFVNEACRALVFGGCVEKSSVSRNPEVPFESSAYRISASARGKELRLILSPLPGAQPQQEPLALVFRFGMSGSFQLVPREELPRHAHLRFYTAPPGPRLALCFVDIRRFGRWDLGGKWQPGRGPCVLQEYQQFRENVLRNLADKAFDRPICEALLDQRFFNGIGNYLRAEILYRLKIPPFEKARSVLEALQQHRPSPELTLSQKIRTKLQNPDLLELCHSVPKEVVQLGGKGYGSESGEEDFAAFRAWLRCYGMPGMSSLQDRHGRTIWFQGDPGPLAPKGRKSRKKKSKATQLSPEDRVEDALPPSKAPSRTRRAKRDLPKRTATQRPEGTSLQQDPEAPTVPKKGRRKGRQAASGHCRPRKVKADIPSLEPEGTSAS
Sequence of Uracil-DNA glycosylase (Homo sapiens) (P13051 whole entry): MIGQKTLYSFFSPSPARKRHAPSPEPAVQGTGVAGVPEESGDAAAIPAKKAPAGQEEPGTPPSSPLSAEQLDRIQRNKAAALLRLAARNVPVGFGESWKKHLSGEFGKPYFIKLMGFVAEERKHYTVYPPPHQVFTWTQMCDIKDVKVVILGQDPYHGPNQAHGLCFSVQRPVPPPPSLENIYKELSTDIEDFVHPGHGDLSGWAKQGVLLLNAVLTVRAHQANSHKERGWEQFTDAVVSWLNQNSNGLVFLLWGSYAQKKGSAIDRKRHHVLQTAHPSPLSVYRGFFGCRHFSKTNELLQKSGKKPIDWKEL

| inhibition ([1]; Compound Concentration 10.0 uM) [%] | inhibition [2, 10] [%] | inhibition ([3]; Compound Concentration 10.0 uM) [%] | inhibition ([4]; Compound Concentration 10.0 uM) [%] | inhibition ([5]; Compound Concentration 10.0 uM) [%] | inhibition ([6]; Compound Concentration 10.0 uM) [%] | inhibition ([7]; Compound Concentration 10.0 uM) [%] | inhibition ([8]; Compound Concentration 10.0 uM) [%] | inhibition ([9]; Compound Concentration 10.0 uM) [%] | inhibition ([1]; Compound Concentration 1.0 uM) [%] | inhibition ([3]; Compound Concentration 1.0 uM) [%] | inhibition ([4]; Compound Concentration 1.0 uM) [%] | inhibition ([5]; Compound Concentration 1.0 uM) [%] | inhibition ([6]; Compound Concentration 1.0 uM) [%] | inhibition ([8]; Compound Concentration 1.0 uM) [%] | inhibition ([9]; Compound Concentration 1.0 uM) [%] | inhibition ([2]; Compound Concentration 1.0 uM, Hit No) [%] | inhibition ([7]; Compound Concentration 1.0 uM) [%] | inhibition ([2]; Compound Concentration 10.0 uM, Hit Yes) [%] | SMILES |
| --- | --- | --- | --- | --- | --- | --- | --- | --- | --- | --- | --- | --- | --- | --- | --- | --- | --- | --- | --- |
| 2.77 | 5.44 | – | 60.9 | -8.92 | 11.6 | 13.4 | -1.95 | 58.3 | -2.23 | 1.58 | 1.64 | -1.05 | 6.55 | -6.89 | 36.9 | – | – | – | Cc1ccc(-c2cnc([C@@]3(O)CC[C@H](C(=O)O)C(C)(C)C3)s2)cc1Nc1cccc(C(F)(F)F)n1 |
| 4.92 | 2.29 | -1.65 | 0.277 | 2.25 | 26.7 | 17.4 | -1.31 | 40.3 | – | – | – | – | – | – | – | – | – | – | C[C@@H]1CCc2ncc(F)cc2[C@H]2CCCN2c2ccn3ncc(c3n2)C(=O)N1 |
| – | – | – | – | – | – | – | – | – | 4.12 | 3.2 | 12 | 6.87 | 21.2 | -4.79 | 36.3 | -1.83 | 14.1 | – | CCN(CC)CCCCNc1ncc2cc(-c3cc(OC)cc(OC)c3)c(NC(=O)NC(C)(C)C)nc2n1 |
| 6.04 | 43.2 | -0.764 | 59.4 | 1.86 | 12 | 34.2 | 5.22 | 51.7 | – | – | – | – | – | – | – | – | – | – | CC[C@H](Nc1c(C#N)c(-c2ccc(-c3cccc(C)c3F)cc2)nc2cnccc12)C(=O)O |
| 3.82 | 6.08 | -3.29 | 67.5 | -6.95 | 9.42 | 5.63 | 3.97 | 47.2 | – | – | – | – | – | – | – | – | – | – | COc1ccc2c(c1)O[C@H](c1ccc(OC)c(OC)c1)C[C@@H]2NC(=O)C1(c2ccc3c(c2)OC(F)(F)O3)CC1 |
| 3.71 | – | 1.55 | 69 | -6.65 | 22.1 | 4.92 | -3.92 | 72.3 | – | – | – | – | – | – | – | – | – | 101 | CC(C)(C[C@H]1CN(S(=O)(=O)c2cccc(C(F)(F)F)c2)c2cc(-c3cc(F)cc(OC(F)F)c3)ccc2O1)C(=O)O |

Further lines, the compound ahead of its results:

| SMILES | inhibition ([1]; Compound Concentration 10.0 uM) [%] | inhibition [2, 10] [%] | inhibition ([3]; Compound Concentration 10.0 uM) [%] | inhibition ([4]; Compound Concentration 10.0 uM) [%] | inhibition ([5]; Compound Concentration 10.0 uM) [%] | inhibition ([6]; Compound Concentration 10.0 uM) [%] | inhibition ([7]; Compound Concentration 10.0 uM) [%] | inhibition ([8]; Compound Concentration 10.0 uM) [%] | inhibition ([9]; Compound Concentration 10.0 uM) [%] | inhibition ([1]; Compound Concentration 1.0 uM) [%] | inhibition ([3]; Compound Concentration 1.0 uM) [%] | inhibition ([4]; Compound Concentration 1.0 uM) [%] | inhibition ([5]; Compound Concentration 1.0 uM) [%] | inhibition ([6]; Compound Concentration 1.0 uM) [%] | inhibition ([8]; Compound Concentration 1.0 uM) [%] | inhibition ([9]; Compound Concentration 1.0 uM) [%] | inhibition ([2]; Compound Concentration 1.0 uM, Hit No) [%] | inhibition ([7]; Compound Concentration 1.0 uM) [%] | inhibition ([2]; Compound Concentration 10.0 uM, Hit Yes) [%] |
| --- | --- | --- | --- | --- | --- | --- | --- | --- | --- | --- | --- | --- | --- | --- | --- | --- | --- | --- | --- |
| C=CC(=O)Nc1ccc2[nH]c(=O)n(C3CCN(Cc4ccc(-c5nc6cc[nH]c(=O)c6cc5-c5ccccc5)cc4)CC3)c2c1 | 4.17 | 49.4 | 4.67 | 24 | 3.12 | 25.8 | 23.4 | 2.5 | 49 | – | – | – | – | – | – | – | – | – | – |
| CC(C)c1cc(Oc2c(Cl)cc(-n3nc(C#N)c(=O)[nH]c3=O)cc2Cl)n[nH]c1=O | -0.0293 | 28.8 | 7.67 | 53.3 | -7.26 | 5.92 | 14 | 7.26 | 50.8 | – | – | – | – | – | – | – | – | – | – |
| CNC(=N)NCCC[C@H](NC(=O)[C@H](CC(C)C)NC(=O)NNC(=O)[C@H](Cc1ccccc1)NC(=O)[C@H](CO)NC(=O)[C@H](CC(N)=O)NC(=O)[C@@H](Cc1cccnc1)NC(=O)[C@H](N)Cc1ccc(O)cc1)C(=O)NCC(N)=O (H-[dY][d3Pal]NSF[azaGly]L[Arg(Me)]G-NH2) | 7.1 | 9.57 | -2.53 | 60.6 | -0.139 | 25.5 | -0.706 | 0.685 | 62.4 | – | – | – | – | – | – | – | – | – | – |
| N#CC1(c2ccccn2)CCN(Cc2cc(C(=O)N3CCCC3)c(=O)n3ccccc23)CC1 | 2.35 | 13.7 | 4.87 | 68.6 | -0.745 | 16.3 | -9.61 | 2 | 39.8 | – | – | – | – | – | – | – | – | – | – |
